Test results as given in paper PMC6268642, “Facile Synthesis and Herbicidal Evaluation of 4H-3,1-Benzoxazin-4-ones and 3H-Quinazolin-4-ones with 2-Phenoxymethyl Substituents” (Molecules, 2012).
Where two headings read alike, the source gives them in different places.

How the values were obtained:
[1] = tested on: barnyard grass Echinochloa crusgalli; assay: Petri dish culture, growth inhibition of root and stalk of barnyard grass; assay type: in vivo; conditions: 5 days; for inhibition at 1 µg/mL / inhibition at 10 µg/mL: Echinochloa crus-galli, 120 h
Experimental: (§1) The synthesized compounds were tested for the herbicidal activity on model plants including a monocotyledon (barnyard grass) and a dicotyledon (rape) by the reported Petri dish culture method. The percent inhibitory ratios against the growth of root and stalk of barnyard grass and rape at different dosage concentrations were calculated, and the compounds with appreciable inhibitory potencies are selected and shown in Table 1 and Table 2. Several features of the inhibitory activities can be derived. First, all the compounds have stronger inhibition against the growth of the dicotyledon rape than against the monocotyledon barnyard grass, showing appreciable selectivity.
(§2) The herbicidal activity was examined for the growth inhibition effect of the dicotyledon rape Brassica napus and the monocotyledon barnyard grass Echinochloa crusgalli, using the standard Petri dish test and the pre-emergence treatment procedure. […] Nine mL of the solution was added in a Petri dish of 9 cm diameter and two pieces of filter paper were placed on the dish bottom. Twenty seeds each of rape and barnyard grass were placed on the filter paper. The covered Petri dish was transferred into an artificial climate incubator (MGC-400H, Shantou Keyi Co., Ltd., China), where the conditions were controlled at temperature 23 ± 1 °C, humidity 60 ± 5%, light intensity 10 Klux, and photoperiod 12 h/day. The incubation was continued for 5 days, then the lengths of 10 roots and 10 stems for each type of plant were measured and the mean values were calculated. The percent inhibitory ratios were calculated relative to control plants exposing to distilled water instead of the compound solution.

rape Brassica napus [2] = assay: Petri dish culture, growth inhibition of root and stalk of rape; assay type: in vivo; conditions: 5 days; for inhibition at 1 µg/mL / inhibition at 10 µg/mL: Brassica napus, 120 h
Experimental: as §1, §2

rape Brassica napus [3] = assay: Concentration-dependent root elongation inhibition of rape (IC50); assay type: in vivo; conditions: for IC50: rape root elongation, Table 3, read-out: IC50 for the root elongation inhibition of rape
Experimental: Several representative compounds selected from the 2-phenoxy-4H-3,1-benzoxazin-4-one and 2-phenoxy-3H-quinazolin-4-one groups were tested their concentration dependant activities and the half maximal inhibitory concentrations (IC50 values) are shown in Table 3. Obviously, the 2-phenoxy-4H-3,1-benzoxazin-4-ones 3m and 3o have IC50 values near to that of the commercial herbicidal 2,4-D. More importantly, these molecules consist of 2-phenoxymethyl group with halo substituents both at the 2- and 4- positions of the benzene ring, a similar pattern to the commercial hormone herbicides 2,4-D, clomeprop, and 2,4-DB, as well as the ACCase herbicide diclofop-methyl. […] Moreover, if no halo group exists on the benzene ring, the activity will decrease dramatically. On the other hand, the substructure 4H-3,1-benzoxazin-4-one in this work and the carboxylic group in the commercial phenoxyethanoic and phenoxypropionic acid herbicides play also a crucial role in the contribution to the activities of the compounds, meaning they are active substructures.
The herbicidal activity was examined for the growth inhibition effect of the dicotyledon rape Brassica napus and the monocotyledon barnyard grass Echinochloa crusgalli, using the standard Petri dish test and the pre-emergence treatment procedure. Briefly, the compounds to be tested were dissolved in DMF and emulsified with Tween 80, and the solutions were diluted with water to the concentrations of […], respectively. Nine mL of the solution was added in a Petri dish of 9 cm diameter and two pieces of filter paper were placed on the dish bottom. Twenty seeds each of rape and barnyard grass were placed on the filter paper. The covered Petri dish was transferred into an artificial climate incubator (MGC-400H, Shantou Keyi Co., Ltd., China), where the conditions were controlled at temperature 23 ± 1 °C, humidity 60 ± 5%, light intensity 10 Klux, and photoperiod 12 h/day. The incubation was continued for 5 days, then the lengths of 10 roots and 10 stems for each type of plant were measured and the mean values were calculated. The percent inhibitory ratios were calculated relative to control plants exposing to distilled water instead of the compound solution.

[4] = 1 mg/L, root growth, read-out: Relative inhibition, root
[5] = 1 mg/L, stalk growth, read-out: Relative inhibition, stalk
[6] = 10 mg/L, root growth, read-out: Relative inhibition, root
[7] = 10 mg/L, stalk growth, read-out: Relative inhibition, stalk

| Compound | Relative inhibition, root ([1]; 1 mg/L, root growth) [%] | Relative inhibition, stalk ([1]; 1 mg/L, stalk growth) [%] | Relative inhibition, root ([1]; 10 mg/L, root growth) [%] | Relative inhibition, stalk ([1]; 10 mg/L, stalk growth) [%] | Relative inhibition, root (rape Brassica napus [2]; 1 mg/L, root growth) [%] | Relative inhibition, stalk (rape Brassica napus [2]; 1 mg/L, stalk growth) [%] | Relative inhibition, root (rape Brassica napus [2]; 10 mg/L, root growth) [%] | Relative inhibition, stalk (rape Brassica napus [2]; 10 mg/L, stalk growth) [%] | IC50 (rape Brassica napus [3]) [µM] | herbicidal activity (control experiment) (rape Brassica napus [3]; compound without the 4H-3,1-benzoxazin-4-one substructure, plant not stated) | inhibition at 1 µg/mL [1, 4] [%] | inhibition at 1 µg/mL [1, 5] [%] | inhibition at 10 µg/mL [1, 6] [%] | inhibition at 10 µg/mL [1, 7] [%] | melting point [°C] | inhibition at 1 µg/mL (rape Brassica napus [2]; [4]) [%] | inhibition at 1 µg/mL (rape Brassica napus [2]; [5]) [%] | inhibition at 10 µg/mL (rape Brassica napus [2]; [6]) [%] | inhibition at 10 µg/mL (rape Brassica napus [2]; [7]) [%] | IC50 (rape Brassica napus [3]; Brassica napus) [µM] |
| --- | --- | --- | --- | --- | --- | --- | --- | --- | --- | --- | --- | --- | --- | --- | --- | --- | --- | --- | --- | --- |
| 3-Amino-7-chloro-2-((2,4-dichlorophenoxy)methyl)-3H-quinazolin-4-one [4i] | 24.3 | −7.2 | 68.5 | 38.1 | 93.6 | 92.3 | 98.2 | 95.7 | 27.2 |  |  |  |  |  |  |  |  |  |  |  |
| CCOc1ccc(Cl)cc1Cl [2,4-dichlorophenyl ethyl ether, reference compound] |  |  |  |  |  |  |  |  |  | loses nearly all of its herbicidal activity |  |  |  |  |  |  |  |  |  |  |
| O=c1oc(COc2ccc(Cl)cc2)nc2ccccc12 [3g, 2-((4-Chlorophenoxy)methyl)-4H-3,1-benzoxazin-4-one] |  |  |  |  |  |  |  |  |  |  | 53.7 | -25.6 | 79.5 | -1.8 | 147.5 to 149.2 | 98 | 56.8 | 100 | 68 | 30.4 |
| O=c1oc(COc2ccc(Cl)cc2)nc2cccc(Cl)c12 [3h, 5-Chloro-2-((4-chlorophenoxy)methyl)-4H-3,1-benzoxazin-4-one] |  |  |  |  |  |  |  |  |  |  | 59.8 | 14.7 | 88.7 | 41.9 | 144.3 to 145.7 | 96.3 | 62 | 100 | 91.7 | 138 |
| O=c1oc(COc2ccc(Cl)cc2)nc2ccc(Cl)cc12 [3i, 6-Chloro-2-((4-chlorophenoxy)methyl)-4H-3,1-benzoxazin-4-one] |  |  |  |  |  |  |  |  |  |  | 55.3 | -7.3 | 87.8 | 13.2 | 153.2 to 154.6 | 91.4 | 40.2 | 100 | 82.1 | 22.3 |
| COc1cc2nc(COc3ccc(Cl)cc3)oc(=O)c2cc1OC [3l, 2-((4-Chlorophenoxy)methyl)-6,7-dimethoxy-4H-3,1-benzoxazin-4-one] |  |  |  |  |  |  |  |  |  |  | 65.5 | 12.8 | 78.7 | 22 | 118.5 to 119.3 | 96.3 | 74.5 | 100 | 83.4 | 80.1 |
| COc1cc2nc(COc3ccc(Cl)cc3)n(N)c(=O)c2cc1OC [4e, 3-Amino-2-((4-chlorophenoxy)methyl)-6,7-dimethoxy-3H-quinazolin-4-one] |  |  |  |  |  |  |  |  |  |  | 13.8 | 2.9 | 23.3 | 11.9 | 202.8 to 204.1 | 21.9 | 1.5 | 30.8 | 6.4 |  |
| Nn1c(COc2ccc(Cl)cc2Cl)nc2cccc(Cl)c2c1=O [4g, 3-Amino-5-chloro-2-((2,4-dichlorophenoxy)methyl)-3H-quinazolin-4-one] |  |  |  |  |  |  |  |  |  |  | 11.8 | -5.9 | 25.8 | -1.8 | 201.5 to 202 | 5.7 | 10 | 17.5 | 44.9 |  |
| Nn1c(COc2ccc(Cl)cc2Cl)nc2ccc(Cl)cc2c1=O [4h, 3-Amino-6-chloro-2-((2,4-dichlorophenoxy)methyl)-3H-quinazolin-4-one] |  |  |  |  |  |  |  |  |  |  | 20 | -42 | 37.5 | -12.7 | 223.6 to 224.9 | 7.5 | 10.7 | 22 | 19.9 |  |
| Cn1c(COc2ccc(Cl)cc2)nc2ccc(Cl)cc2c1=O [4l, 6-Chloro-2-((4-chlorophenoxy)methyl)-3-methyl-3H-quinazolin-4-one] |  |  |  |  |  |  |  |  |  |  | 24.7 | 8.9 | 33.7 | 11.9 | 179.9 to 181.2 | 28.5 | 1.5 | 42.2 | 10.8 |  |
| Cn1c(COc2ccc(Cl)cc2)nc2cc(Cl)ccc2c1=O [4m, 7-Chloro-2-((4-chlorophenoxy)methyl)-3-methyl-3H-quinazolin-4-one] |  |  |  |  |  |  |  |  |  |  | 14.8 | 7.5 | 29.2 | 14.9 | 202.4 to 203.9 | 26.2 | 1.5 | 27.9 | -0.5 |  |
| Cc1ccc2nc(COc3ccc(Cl)cc3)n(C)c(=O)c2c1 [4n, 2-((4-Chlorophenoxy)methyl)-3,6-dimethyl-3H-quinazolin-4-one] |  |  |  |  |  |  |  |  |  |  | 26.7 | 14.9 | 43.5 | 14.9 | 196.4 to 197.6 | 39.4 | 7.8 | 45 | 16.6 |  |
| COc1cc2nc(COc3ccc(Cl)cc3)n(C)c(=O)c2cc1OC [4o, 2-((4-Chlorophenoxy)methyl)-6,7-dimethoxy-3-methyl-3H-quinazolin-4-one] |  |  |  |  |  |  |  |  |  |  | 13.3 | 8.9 | 17.3 | 5.9 | 201.8 to 202.7 | 25.1 | 1.9 | 34.8 | -6.8 |  |
| Cn1c(COc2ccc(Cl)cc2Cl)nc2ccccc2c1=O [4p, 2-((2,4-Dichlorophenoxy)methyl)-3-methy-3H-quinazolin-4-one] |  |  |  |  |  |  |  |  |  |  | 2.5 | -10.9 | 29.4 | -47.3 | 172.1 to 173.4 | 4.5 | 27.1 | 21.2 | 29.2 |  |
| Cn1c(COc2ccc(Cl)cc2Cl)nc2ccc(Cl)cc2c1=O [4q, 6-Chloro-2-((2,4-dichlorophenoxy)methyl)-3-methyl-3H-quinazolin-4-one] |  |  |  |  |  |  |  |  |  |  | 24.3 | 5.4 | 31.9 | -3.6 | 240.1 to 241.8 | 8.1 | 14.4 | 19.3 | 38.9 |  |
| COc1cc2nc(COc3ccc(Cl)cc3Cl)n(C)c(=O)c2cc1OC [4s, 2-((2,4-Dichlorophenoxy)methyl)-6,7-dimethoxy-3-methyl-3H-quinazolin-4-one] |  |  |  |  |  |  |  |  |  |  | 30 | -20.3 | 52.2 | -54.5 | 243.9 to 245.2 | 7.1 | 8.1 | 20.7 | 20.3 |  |
